Values quoted from earlier work in patent US20250312497A1, “METHOD OF TREATING PROSTATE CANCER” (Novartis AG, priority 2022, published 2025).

Legend:
[1] = tested on: docetaxel progressing metastatic castration-resistant prostate cancer; conditions: randomized, 200 patients; P<0.0001; cited from earlier work
mCRPC = conditions: control arm; prior docetaxel and abiraterone acetate and/or enzalutamide; cited from earlier work

| SMILES | proportion of patients with PSA decline >=50% [1] [%] | median overall survival (mCRPC) [months] |
| --- | --- | --- |
| CO[C@H]1C(=O)[C@]2(C)[C@@H](OC)C[C@H]3OC[C@@]3(OC(C)=O)[C@H]2[C@H](OC(=O)c2ccccc2)[C@]2(O)C[C@H](OC(=O)[C@H](O)[C@@H](NC(=O)OC(C)(C)C)c3ccccc3)C(C)=C1C2(C)C [cabazitaxel] | 37 | – |
| C[C@]12C=CC(=O)C=C1CC[C@@H]1[C@@H]2C(=O)C[C@@]2(C)[C@H]1CC[C@]2(O)C(=O)CO [prednisone] | – | 9.8 |
